Results from PubChem BioAssay (NCI).
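These data come from cells grown in 96-well plates and exposed to compound for 48 hours at five concentrations. GI50 = concentration required for 50% inhibition of growth. TGI: concentration producing complete growth inhibition.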

Legend:
Assay in all cases: NCI anticancer screen, dose series, 48 h
786-0 renal = tested on: 786-0 renal
KM12 colon = tested on: KM12 colon
IGROV1 ovarian = tested on: IGROV1 ovarian
NCI-H460 lung = tested on: NCI-H460 lung
NCI-H23 lung = tested on: NCI-H23 lung
A498 renal = tested on: A498 renal
COLO 205 colon = tested on: COLO 205 colon
MALME-3M melanoma = tested on: MALME-3M melanoma
U251 CNS = tested on: U251 CNS
NCI-H226 lung = tested on: NCI-H226 lung
M14 melanoma = tested on: M14 melanoma
SF-295 CNS = tested on: SF-295 CNS
UACC-62 melanoma = tested on: UACC-62 melanoma
HS 578T breast = tested on: HS 578T breast
DU-145 prostate = tested on: DU-145 prostate
SF-539 CNS = tested on: SF-539 CNS
MDA-MB-231 breast = tested on: MDA-MB-231 breast
SK-OV-3 ovarian = tested on: SK-OV-3 ovarian
RXF 393 renal = tested on: RXF 393 renal
SF-268 CNS = tested on: SF-268 CNS
HCC-2998 colon = tested on: HCC-2998 colon
SK-MEL-28 melanoma = tested on: SK-MEL-28 melanoma
OVCAR-5 ovarian = tested on: OVCAR-5 ovarian
SK-MEL-2 melanoma = tested on: SK-MEL-2 melanoma
UO-31 renal = tested on: UO-31 renal
HT29 colon = tested on: HT29 colon
SN12C renal = tested on: SN12C renal
EKVX NSCLC = tested on: EKVX NSCLC
A549 NSCLC = tested on: A549 NSCLC
UACC-257 melanoma = tested on: UACC-257 melanoma
TK-10 renal = tested on: TK-10 renal
SK-MEL-5 melanoma = tested on: SK-MEL-5 melanoma
HCT-15 colon = tested on: HCT-15 colon
CCRF-CEM leukemia = tested on: CCRF-CEM leukemia
BT-549 breast = tested on: BT-549 breast
OVCAR-3 ovarian = tested on: OVCAR-3 ovarian
MOLT-4 leukemia = tested on: MOLT-4 leukemia
HOP-92 NSCLC = tested on: HOP-92 NSCLC
HCT-116 colon = tested on: HCT-116 colon
MDA-MB-435 = tested on: MDA-MB-435
NCI/ADR-RES ovarian = tested on: NCI/ADR-RES ovarian
RPMI-8226 leukemia = tested on: RPMI-8226 leukemia
HOP-62 NSCLC = tested on: HOP-62 NSCLC
CAKI-1 renal = tested on: CAKI-1 renal
SW-620 colon = tested on: SW-620 colon
K-562 leukemia = tested on: K-562 leukemia
LOX IMVI melanoma = tested on: LOX IMVI melanoma
ACHN renal = tested on: ACHN renal
HL-60(TB) leukemia = tested on: HL-60(TB) leukemia
SNB-75 CNS = tested on: SNB-75 CNS
SNB-19 CNS = tested on: SNB-19 CNS
OVCAR-4 ovarian = tested on: OVCAR-4 ovarian
OVCAR-8 ovarian = tested on: OVCAR-8 ovarian
MCF7 breast = tested on: MCF7 breast
SR leukemia = tested on: SR leukemia
PC-3 prostate = tested on: PC-3 prostate
NCI-H522 lung = tested on: NCI-H522 lung
T-47D breast = tested on: T-47D breast

Nc1cccc2c1CN(C1CCC(=O)NC1=O)C2=O (stereo unspecified)
GI50 (786-0 renal): > 100 µM | TGI (786-0 renal): > 100 µM | GI50 (KM12 colon): > 100 µM | TGI (KM12 colon): > 100 µM | GI50 (IGROV1 ovarian): > 100 µM | TGI (IGROV1 ovarian): > 100 µM | GI50 (NCI-H460 lung): > 100 µM | TGI (NCI-H460 lung): > 100 µM | GI50 (NCI-H23 lung): > 100 µM | TGI (NCI-H23 lung): > 100 µM | GI50 (A498 renal): > 100 µM | TGI (A498 renal): > 100 µM | GI50 (COLO 205 colon): > 100 µM | TGI (COLO 205 colon): > 100 µM | GI50 (MALME-3M melanoma): > 100 µM | TGI (MALME-3M melanoma): > 100 µM | GI50 (U251 CNS): > 100 µM | TGI (U251 CNS): > 100 µM | GI50 (NCI-H226 lung): > 100 µM | TGI (NCI-H226 lung): > 100 µM | GI50 (M14 melanoma): > 100 µM | TGI (M14 melanoma): > 100 µM | GI50 (SF-295 CNS): > 100 µM | TGI (SF-295 CNS): > 100 µM | GI50 (UACC-62 melanoma): > 100 µM | TGI (UACC-62 melanoma): > 100 µM | GI50 (HS 578T breast): > 100 µM | TGI (HS 578T breast): > 100 µM | GI50 (DU-145 prostate): > 100 µM | TGI (DU-145 prostate): > 100 µM | GI50 (SF-539 CNS): > 100 µM | TGI (SF-539 CNS): > 100 µM | GI50 (MDA-MB-231 breast): > 100 µM | TGI (MDA-MB-231 breast): > 100 µM | GI50 (SK-OV-3 ovarian): > 100 µM | TGI (SK-OV-3 ovarian): > 100 µM | GI50 (RXF 393 renal): > 100 µM | TGI (RXF 393 renal): > 100 µM | GI50 (SF-268 CNS): > 100 µM | TGI (SF-268 CNS): > 100 µM | GI50 (HCC-2998 colon): > 100 µM | TGI (HCC-2998 colon): > 100 µM | GI50 (SK-MEL-28 melanoma): > 100 µM | TGI (SK-MEL-28 melanoma): > 100 µM | GI50 (OVCAR-5 ovarian): > 100 µM | TGI (OVCAR-5 ovarian): > 100 µM | GI50 (SK-MEL-2 melanoma): > 100 µM | TGI (SK-MEL-2 melanoma): > 100 µM | GI50 (UO-31 renal): > 100 µM | TGI (UO-31 renal): > 100 µM | GI50 (HT29 colon): > 100 µM | TGI (HT29 colon): > 100 µM | GI50 (SN12C renal): > 100 µM | TGI (SN12C renal): > 100 µM | GI50 (EKVX NSCLC): > 100 µM | TGI (EKVX NSCLC): > 100 µM | GI50 (A549 NSCLC): > 100 µM | TGI (A549 NSCLC): > 100 µM | GI50 (UACC-257 melanoma): > 100 µM | TGI (UACC-257 melanoma): > 100 µM | GI50 (TK-10 renal): > 100 µM | TGI (TK-10 renal): > 100 µM | GI50 (SK-MEL-5 melanoma): > 100 µM | TGI (SK-MEL-5 melanoma): > 100 µM | GI50 (HCT-15 colon): > 100 µM | TGI (HCT-15 colon): > 100 µM | GI50 (CCRF-CEM leukemia): > 100 µM | TGI (CCRF-CEM leukemia): > 100 µM | GI50 (BT-549 breast): > 100 µM | TGI (BT-549 breast): > 100 µM | GI50 (OVCAR-3 ovarian): > 100 µM | TGI (OVCAR-3 ovarian): > 100 µM | GI50 (MOLT-4 leukemia): > 100 µM | TGI (MOLT-4 leukemia): > 100 µM | GI50 (HOP-92 NSCLC): > 34.2 µM | TGI (HOP-92 NSCLC): > 100 µM | GI50 (HCT-116 colon): > 100 µM | TGI (HCT-116 colon): > 100 µM | GI50 (MDA-MB-435): > 100 µM | TGI (MDA-MB-435): > 100 µM | GI50 (NCI/ADR-RES ovarian): > 100 µM | TGI (NCI/ADR-RES ovarian): > 100 µM | GI50 (RPMI-8226 leukemia): > 100 µM | TGI (RPMI-8226 leukemia): > 100 µM | GI50 (HOP-62 NSCLC): > 100 µM | TGI (HOP-62 NSCLC): > 100 µM | GI50 (CAKI-1 renal): > 100 µM | TGI (CAKI-1 renal): > 100 µM | GI50 (SW-620 colon): > 100 µM | TGI (SW-620 colon): > 100 µM | GI50 (K-562 leukemia): > 100 µM | TGI (K-562 leukemia): > 100 µM | GI50 (LOX IMVI melanoma): > 100 µM | TGI (LOX IMVI melanoma): > 100 µM | GI50 (ACHN renal): > 100 µM | TGI (ACHN renal): > 100 µM | GI50 (HL-60(TB) leukemia): > 100 µM | TGI (HL-60(TB) leukemia): > 100 µM | GI50 (SNB-75 CNS): > 100 µM | TGI (SNB-75 CNS): > 100 µM | GI50 (SNB-19 CNS): > 100 µM | TGI (SNB-19 CNS): > 100 µM | GI50 (OVCAR-4 ovarian): > 100 µM | TGI (OVCAR-4 ovarian): > 100 µM | GI50 (OVCAR-8 ovarian): > 100 µM | TGI (OVCAR-8 ovarian): > 100 µM | GI50 (MCF7 breast): > 100 µM | TGI (MCF7 breast): > 100 µM | GI50 (SR leukemia): > 100 µM | TGI (SR leukemia): > 100 µM | GI50 (PC-3 prostate): > 100 µM | TGI (PC-3 prostate): > 100 µM | GI50 (NCI-H522 lung): > 100 µM | TGI (NCI-H522 lung): > 100 µM | GI50 (T-47D breast): > 100 µM | TGI (T-47D breast): > 100 µM
